Assay results as given in patent US8546322B2, “Inhibitors of intracellular urokinase plasminogen activator and methods of use thereof” (The Regents of the University of California, priority 2007, dated 2013).
“Also recorded” adds a separate entry of the source. Where two headings read alike, the source gives them in different places. *1 amine or outer side, *2 acyl side, *3 side chain or, on linkers, in order; H or OH if unused. Where a SMILES comes first, the peptide text is derived from it. [ ]: non-standard residue; d: D form. X1 = N=C(N)NC(=O)c1nc(Cl)c(N(CC(=O)[*:2])[*:1])nc1N

How the values were obtained:
U87 glioma cells [1] = test: U87 glioma cell adherence to extracellular matrix (ECM); assay type: cell-based, human; settings: for activity at 250 µM: Homo sapiens, U-87 MG, U87 cells on ECM, 4 h, read-out: % of control attachment at 4 h
Method: As shown in FIGS. 4A and B and, U87 glioma cells in logarithmic growth were trypsinized and washed ×1 with PBS. 4×10^5 cells were plated on to each ECM-coated well that was treated as indicated. Cells were monitored for adherence to the ECM. The numbers of attached cells in each well were manually counted using interference microscopy after 4 hours when adherence was complete. Experiments were performed in triplicate for each treatment and data expressed as mean+S.D. **statistically signif at P<0.001. Glioma cell morphology 4 h after plating as visualized by phase contrast microscopy.
To study adherence, wells in 24-well plates are coated with 200 ul of PBS (CMF Dulbecco's) containing one of the following ECM substrates: {i} […] {ii} vitronectin {iii} fibronectin {iv} lamininin-5. Plates are incubated 1 h at 37° C. then wells are washed once with prewarmed serum-free DMEM and the drug added to each well. Each treatment group, consisting of pretreated glioma cells (3×10^3 cells/well) is plated into 6 wells, and adhesion is evaluated at 60 min intervals over a 6-18 hour period, depending of the cell line. Unbound cells are gently dislodged with Dulbecco's PBS, while counting adherent cells in 10 random fields per each well under 10× magnification using an inverted microscope with interference phase optics and an ocular grid (21 mm^2). During the same time intervals, the percent value of spread cells with respect to adherent cells is evaluated.

glioma cells = test: Glioma cell volume in vitro and in intracerebral xenografts (7 tesla NMR); assay type: cell-based
U87 glioma cells [2] = test: U87 proliferation and survival, tetrazolium (WST) live cell assay and manual cell counts; assay type: cell-based, human; settings: for activity at 250 µM: Homo sapiens, U-87 MG, 48 h treatment, read-out: cell numbers as % of control at 48 h (WST assay)
Method: Proliferation of U87 glioma cells was inhibited by AmC(5)-GlyOBn at 24 h. […] Manual cell counts, coupled with the trypan blue exclusion assay, determined the number of viable cells at 24 h and 48 h. Three separate experiments (n=6/exp) with S.D. as shown, *significance at P<0.01. Removal of AmC(5)-GlyOBn at 24 h caused cell numbers to increase by 48 h, as compared with U87 glioma cell numbers that continued to be treated with the drug for 48 h (Table 1).
Total live cell numbers per well were determined using a tetrazolium assay (WST).
WST […] that can be reduced in attached and detached live cells to formazon that is detected spectrophotometrically. Formazon formation has been determined to be proportional to glioma cell number for U87MG, U251, U373, and primary astrocytes. Absorbances are measured at 570 nm using a microtiter plate reader. Mean background absorbances of cell-free media (630 nm) are subtracted from these values. […] Identical concentrations of glioma cells are grown until 50% confluent on 60 mm plates. Following drug treatments, floating cells in media are collected and combined with adherent cells that were harvested following 0.25% v/v trypsin for 5 minutes (37° C.). The combined fractions are centrifuged at 350×g for 5 min. The resultant cell pellet is resuspended in equal volumes of PBS-CMF with 0.4% trypan blue.

[3] = molecular target: T1, bovine pancreatic trypsin (Bos taurus, UniProt P00760); test: LCMS trypsin digest (negative control enzyme); assay type: biochemical; settings: LCMS after incubation with enzyme
T1 construct: purchased Calbiochem; host or cells: bovine pancreas
T1 sequence (P00760 24-246): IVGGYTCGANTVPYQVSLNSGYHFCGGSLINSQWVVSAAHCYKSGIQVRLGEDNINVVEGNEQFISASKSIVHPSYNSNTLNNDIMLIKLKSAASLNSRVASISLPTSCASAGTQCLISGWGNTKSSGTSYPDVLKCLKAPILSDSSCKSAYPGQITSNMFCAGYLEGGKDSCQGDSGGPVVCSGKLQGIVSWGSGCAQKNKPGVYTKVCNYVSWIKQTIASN
Method: (§1) Compound 3b is a C5am-Gly-peptide conjugate containing two D-amino acids, and compound 3c is a C5 am-Gly-peptide conjugate coupled to a peptide to generate an analog of opioid peptides that cross the blood brain barrier (BBB). The resultant conjugates (compounds 3a-c) were tested for selective cleavage by the brain peptidase enkephalinase (neutral endopeptidase 24.11; Calbiochem) via incubation for 24 h in the presence or absence of the enzyme, and aliquots from the reaction solutions were then analyzed by LCMS to identify the C5am-Gly conjugate (compound 3a), starting material, and enzymatic cleavage products (see, Scheme 3). As negative control experiments, the conjugates were analyzed following treatment with (1) bovine pancreatic trypsin (Calbiochem) or (2) the buffer solutions without enzymes.

uPA = molecular target: T2, uPA (Homo sapiens, UniProt P00749); test: uPA enzymatic inhibition with peptide-specific fluorogenic substrates; assay type: biochemical
T2 construct: uPA, tPA, and MMP-2 and MMP-9 enzymatic activities secreted by and contained within glioma cell lines; endogenous in cells; host or cells: U87 and other human glioma cell lines (homogenates, conditioned media)
Method: uPA, tPA, and MMP-2 and MMP-9 enzymatic activities secreted by and contained within glioma cell lines, normal astrocyte cultures, primary rat brain, and intracranial glioma xenograft homogenates are measured using commercial peptide analog substrates, that become fluorescent when enzymatically cleaved. Recombinant tPA was obtained from ASSAYPRO, CT1001.

[4] = Incubation in buffer solutions without enzymes; assay type: physicochemical
Method: as §1

U87 glioma cells [5] = test: U87 cell death, manual cell counts with trypan blue exclusion; assay type: cell-based, human; settings: for % cell death, trypan blue: 250 microM, 48 h treatment
NHE1 = molecular target: T3, NHE1 (Homo sapiens, UniProt P19634); test: Sodium-proton exchange (NHE1) inhibition in glioma cells (BCECF fluorometry); assay type: cell-based
T3 construct: endogenous in cells; host or cells: glioma cell lines (U87)
Method: Sodium-proton type 1 (NHE1) and sodium-calcium transport (NCX) measurements in glioma cells. Inhibition of NHE in glioma cell lines using BCECF and quantitative fluorometry are routinely measured (McLean, L. A., et al., Malignant gliomas display altered pH regulation by NHE1 compared with nontransformed astrocytes. Am J Physiol Cell Physiol, 2000. 278(4): p. C676-88). IC50 of NCX transport bidirectionally is measured using whole cell patch clamping bidirectional NCX inhibition using a HEK-293 cell line transfected with NCX 1.1 obtained from J. Lytton (Dong, H., J. Dunn, and J. Lytton, Stoichiometry of the Cardiac Na+/Ca2+ exchanger NCX1.1 measured in transfected HEK cells. Biophys J, 2002. 82(4): p. 1943-52).

U87 glioma cells [6] = test: Cell permeation by fluorescent microscopy of U87 glioma cells; assay type: cell-based; settings: 50 μM, 90-180 min incubation
Method: 27). The fluorescent extinction coefficient of each compound is determined using a spectrofluorometer and permits semi-quantitative estimations of intracellular drug accumulation.
U87 glioma cells were incubated with 50 uM of each compound for 180 min followed by washing the cells ×2 with PBS.

[7] = system: intracerebral human U87 glioma xenografts; test: Intracerebral U87 glioma xenograft growth (NMR, stereology); assay type: in vivo, athymic rats
Method: The volume of U87 glioma xenografts were measured at different postimplantation times using the small animal 7 tesla NMR facility on UC Davis campus.
Determining tumor doubling time (hrs) in U87 xenografts were measured using small animal NMR.
Pretreatment of athymic rats with intracranial AmC(5)Gly-OBn for 3 days prior to implantation achieved steady-state brain levels as measured by HPLC-fluorometry. Following glioma cell implantation, once daily intracranial administration was continued for 10 days.
Rats (250-280 gm) are intubated with 4% isoflurane and air:O2 (2:1), maintained on 2% isoflurane, and placed into a Kopf stereotactic apparatus. Glioma cells at are harvested at 80% confluence, trypsinized, and then washed three times in sterile, isotonic phosphate buffered saline. Cells are counted in a hemocytometer and diluted to a final concentration of 1×10^4 cells per microL. 5 microL of glioma cells (5×10^4) are stereotaxically injected into a 0.5 mm pocket made by a 23 gauge needle in the left anterior corpus striatum (−1 mm bregma, +4 mm left lateral, −5.0 mm depth) under sterile conditions in a laminar flow hood.
Prior to imaging the rats are administered 0.5 cc of OMNISCAN gadodiamide intraperitoneally (NYCOMED). […] A gradient recalled echo sequence is obtained which furnished a single slice in sagittal, coronal, and transverse orientations (‘triplot’) and which served as a scout image to ensure proper positioning of the animal. Spectroscopic images are obtained with a 7 Tesla (300 MHz) BRUKER BIOSPEC 70/20 system with a 210 mm horizontal bore equipped with B-GA12 shim coils driven by BRUKER Shim Power Supply with a maximum of 2A of current for each shim. S116 birdcage design resonator coil (maximum current: 100 A and maximum voltage: 150V) of 72 mm maximum sample diameter with gradient strength of 200 mT/mm was used for both. T1-weighted images (TR/TE=500/20 msec) are obtained using the standard spin echo sequence in the transverse, sagittal as well as in the coronal direction. […] Multiple contiguous slices separated by 1 mm are collected using 3 sinc pulses each of 2 msec duration, and which cover the entire tumor in one scan. The average scan time is approx 60 sec for the entire T1-weighted protocol.
Cavalieri's method estimates the volume of a structure (in our case, glial tumor) by measuring the area of the structure in a number of evenly spaced “two-dimensional” sections. In our in vivo tumor model, the procedure involves a systematically random collection of 10 sections evenly spaced through the entire tumor. To perform this, the brain is cut into 40 micron coronal sections and every section is collected to encompass the entire tumor. When the anterior most portion of the tumor becomes visible in the series of sections, a die is thrown to determine if the first, second, third, fourth, or fifth section from that point should be the initial section saved for staining and area analysis. Henceforth, every tenth section is stained and tumor area measured. This ensures that each section through the tumor has an equal probability of being analyzed. Tumor area is estimated with suitable precision by applying to each section a point grid with a known area associated with each point (a/p). Tumor volume (V) is then calculated using the formula: V=(T)·(a/p) delta Pi; where T=distance between sections, P=points landing on the tumor on the ith section.

[8] = Neuropathology and behaviour with intracranial administration; assay type: in vivo
Excerpt: […]. For amiloride, parasaggital sections were stained with hematoxylin and eosin in addition to using specialized stains for neuronal damage (FluoroJade) and for myelinated fiber tracts (luxol fast blue). […].
. Each experimental and control group described below consist of a minimum of 10 animals per group. Experimental Design. The in vivo toxicity studies initially employ single, daily intracranial infusions of the candidate compound into a group of Sprague-Dawley rats for 13 days. Treated S-D animals are compared to a group of 10 control animals receiving intracranial drug vehicle injections. The infused drug concentration is based upon the cell line studies and adjusted for the low protein content of the cerebrospinal fluid which is 0.2% that of serum. Animals are behaviorally assessed for toxicity. […]. General Health and Behavioral Studies. Body weights and behavioral parameters are assessed daily in drug-treated and vehicle-treated rats during 12 day treatment paradigms. Currently, standardized behavior tests are used, which include quantitative measures of vestibulomotor function, fine motor coordination, ambulation, and spatial memory. A daily neurotoxicity behavioral sign checklist (72) to detect neurological signs of toxicity and seizures is also performed. Acquisition of spatial memory is particularly sensitive for detecting subtle drug toxicities (Preliminary Results). Body weight is used as a measure of general health. Neuropathological Studies: Cytological studies are performed in the same drug-treated and vehicle-treated rats at the conclusion of behavioral testing. Fixation and sectioning techniques are described in the Experimental Methods section. Hematoxylin and eosin are used routinely to survey for neuropathological changes. Luxol fast blue stains myelin tracts to evaluate potential white matter changes. […] Assessment of brainstem white matter tracts with luxol fast blue staining includes the spinocerebellar, vestibulospinal, corticospinal, spinothalamic. Specialized stains for reactive astrocytes, neuronal chromatolysis, etc. are added if brain lesions are detected. […]. Potential Problems and Alternatives. […]. […] These behavioral studies indicate the need to behaviorally assess treatment of the glioma tumor models.

[9] = in vivo; cited from earlier work
[10] = phase II; cited from earlier work
rat breast cancer = settings: in vivo; cited from earlier work

T3 sequence (P19634 whole entry): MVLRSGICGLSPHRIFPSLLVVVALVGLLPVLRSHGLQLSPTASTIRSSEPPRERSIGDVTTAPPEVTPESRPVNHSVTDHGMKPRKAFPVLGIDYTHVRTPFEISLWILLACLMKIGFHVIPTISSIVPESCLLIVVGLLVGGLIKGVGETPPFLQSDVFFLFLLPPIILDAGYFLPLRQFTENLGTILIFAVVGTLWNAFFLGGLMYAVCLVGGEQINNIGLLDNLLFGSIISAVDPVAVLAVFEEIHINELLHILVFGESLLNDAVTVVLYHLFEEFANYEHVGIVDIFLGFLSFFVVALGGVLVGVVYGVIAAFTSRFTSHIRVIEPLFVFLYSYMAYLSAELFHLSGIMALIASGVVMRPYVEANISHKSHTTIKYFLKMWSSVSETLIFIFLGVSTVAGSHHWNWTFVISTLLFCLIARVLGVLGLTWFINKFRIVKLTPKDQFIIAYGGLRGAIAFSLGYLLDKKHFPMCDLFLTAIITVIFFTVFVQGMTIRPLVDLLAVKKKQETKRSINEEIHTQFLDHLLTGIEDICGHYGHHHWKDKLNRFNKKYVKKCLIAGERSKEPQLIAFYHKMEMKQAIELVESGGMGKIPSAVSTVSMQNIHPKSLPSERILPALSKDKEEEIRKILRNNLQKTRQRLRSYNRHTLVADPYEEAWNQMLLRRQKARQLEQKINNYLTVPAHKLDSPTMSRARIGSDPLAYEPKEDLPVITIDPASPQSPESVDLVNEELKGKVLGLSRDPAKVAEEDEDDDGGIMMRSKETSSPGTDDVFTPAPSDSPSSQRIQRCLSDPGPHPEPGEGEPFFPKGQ

SMILES: N=C(N)NC(=O)c1nc(Cl)c(NCC(=O)O)nc1N [AmC(5)Gly, amilorideC(5)-glycine-OH]
- glioma cell adherence to ECM (in words) (U87 glioma cells [1]): does not affect
- activity at 250 µM (U87 glioma cells [1]): 85 ± 15%
- glioma cell volume (in words) (glioma cells): shrink glioma cell volumes
- glioma cell volume (in words) (glioma cells; listed as AmC(5)Gly-OH): does reduce glioma cell volume
- glioma cell proliferation (in words) (U87 glioma cells [2]): does not affect
- activity at 250 µM (U87 glioma cells [2]): 93%
- cleavage by trypsin (in words) [3]: unaffected
- inhibition of uPA (in words) (uPA): reversible and micromolar inhibitor
- inhibition of uPA (in words) (uPA; listed as AmC(5)-Gly-OH): selectively inhibit
- inhibition of uPA (in words) (uPA; listed as AmC(5)Gly-OH): micromolar range
- inhibition of uPA (in words) (uPA; listed as AmC(5)GlyOH): reversibly and comparably inhibit
- stability in control (buffer) digestion (in words) [4]: unaffected
- % cell death, trypan blue (U87 glioma cells [5]): (5) %
- glioma cell death / viability (in words) (U87 glioma cells [5]; 48 h): does not affect
- inhibition of NHE1 (in words) (NHE1): reversible and micromolar inhibitor
- IC50 (NHE1; glioma cells): 10 to 100 nM
- potency of NHE1 inhibition relative to amiloride (NHE1; glioma cells): 100-1000 times
- inhibition of NHE1 (in words) (NHE1; listed as AmC(5)Gly-OH): micromolar range
- inhibition of NHE1 (in words) (NHE1; listed as AmC(5)GlyOH): reversibly and comparably inhibit
- inhibition of NHE1 (in words) (NHE1; listed as C5am-Gly): rapidly reversed
- cell permeation (in words) (U87 glioma cells [6]): does not permeate glioma cells
- cell permeation (in words) (U87 glioma cells [6]; listed as AmC(5)Gly-OH): does not permeate cells
- cell permeation (in words) (U87 glioma cells [6]; listed as AmC(5)GlyOH): does not

SMILES: NC(N)=NC(=O)c1nc(Cl)c(N)nc1N [Amiloride, 3,5-diamino-6-chloro-N-(diaminomethylene)pyrazinecarboxamide]
- activity at 250 µM (U87 glioma cells [1]): 58 ± 12%
- Doubling time ([7]; 10 mM amiloride reservoir (Alzet pump, infused days 12-17), day 10 post implant): 3.07 h
- Doubling time ([7]; 10 mM amiloride reservoir, day 12 post implant): 3.4 h
- Doubling time ([7]; 10 mM amiloride reservoir, day 15 post implant): 3.99 h
- Doubling time ([7]; 10 mM amiloride reservoir, day 17 post implant): 4.44 h
- Doubling time ([7]; 100 mM amiloride reservoir, 276 pmol/24 h (infused days 12-17), day 10 post implant): 1.23 h
- Doubling time ([7]; 100 mM amiloride reservoir, 276 pmol/24 h, day 12 post implant): 1.98 h
- Doubling time ([7]; 100 mM amiloride reservoir, 276 pmol/24 h, day 15 post implant): 4.58 h
- Doubling time ([7]; 100 mM amiloride reservoir, 276 pmol/24 h, day 17 post implant): 11.65^++ hrs
- xenograft tumor growth (in words) ([7]; intracranial administration): significantly slowed the growth rate
- activity at 250 µM (U87 glioma cells [2]): 31%
- % cell death, trypan blue (U87 glioma cells [5]): (57) %
- cell permeation (in words) (U87 glioma cells [6]): rapidly permeate cells
- behavioral side effects and seizures (in words) ([8]; efficacious intracranial administration): observed
- neuropathological changes in normal brain cell types (in words) ([8]; intracranial administration, 10-14 days): Neither compound produces neuropathological changes; also recorded: Neuropathological changes were not observed
- animals with intermittent seizures ([8]; intrathecal amiloride infusion, S-D male rats): 3 of 8
- spatial memory (in words) ([8]; intrathecal infusion): modestly affect spatial memory; also recorded: problems with spatial memory that persisted throughout the nine day infusion period
- premature deaths (in words) ([8]; rat, in vivo): no premature deaths
- motor performance (in words) ([8]; rats with intracerebral glioma xenografts, infusion): did not alter motor performance

SMILES: CC(C)C[C@@H](NC(=O)[C@H](Cc1ccccc1)NC(=O)CNC(=O)[C@@H](C)NC(=O)CNc1nc(N)c(C(=O)NC(=N)N)nc1Cl)C(=O)O [Compound 3b, C5am-Gly-D-Ala-Gly-Phe-D-Leu-OH] (H-[X1][dA]GF[dL]-OH)
- cleavage by trypsin (in words) [3]: not cleaved
- stability in control (buffer) digestion (in words) [4]: not cleaved

SMILES: CC(C)C[C@H](NC(=O)[C@H](Cc1ccccc1)NC(=O)CNC(=O)CNC(=O)CNC(=O)CNc1nc(N)c(C(=O)NC(=N)N)nc1Cl)C(=O)O [Compound 3c, C5am-Gly-Gly-Gly-Gly-Phe-Leu-OH] (H-[X1]GGGFL-OH)
- cleavage by trypsin (in words) [3]: did not generate C5am-Gly

SMILES: NC(=NCc1ccc(Cl)cc1Cl)NC(=O)c1nc(Cl)c(N)nc1N [DCB, 2,4-dichlorobenzamil]
- toxicity (in words) [9]: highly toxic and causes lethality when administered

SMILES: CCOC(=O)N1CCN(C(=O)[C@H](Cc2cccc(C(=N)N)c2)NS(=O)(=O)c2c(C(C)C)cc(C(C)C)cc2C(C)C)CC1.Cl [WX-UK1]
- toxicity in clinical trials (in words) [10]: non-toxic
- metastasis and primary tumour growth (in words) (rat breast cancer): suppresses rat breast cancer metastasis
